From US20240139185A1, “COMPOUNDS THAT PARTICIPATE IN COOPERATIVE BINDING AND USES THEREOF” (Revolution Medicines, Inc., priority 2018, published 2024)

Key:
cyclophilin A (CYPA) = cyclophilin A (CYPA) (Homo sapiens, UniProt P62937); experiment: CYPA-compound binary complex formation by SPR; settings: read-out: CYPA Binding Affinity
Method: In order to determine the affinity of compounds of the invention for cyclophilin A (CYPA), we employed surface plasmon resonance binding analysis using the following reagents, instruments and protocol as supplied by the instrument manufacturer.
Reagents and Instrument • 1. Instrument: Biacore S200 (GE Healthcare Life Sciences) • 2. Running buffer: 1×HBS-P+ (1×HBS supplemented with 0.05% Tween20), pH7.4, and 2% DMSO. • 3. Ligand: CypA-Avi • 4. Analyte: Serial dilution of WDB compounds from 50 μM to 0 μM, 2-fold dilution, 10 points (10 mM stock concentration). • 5. Sensor kit: Biotin CAPture Kit (BR28-9202-34, GE Healthcare Life Sciences) • 6. Regeneration buffer: 1 volume of 1 M NaOH and 3 volumes of 8 M guanidine hydrochloride (supplied with CAPture Kit, BR28-9202-34, GE Healthcare Life Sciences)
Experimental Procedure • 1. Capture of CAPreagent: 2 μl/min for 60 seconds. • 2. Immobilization of ligand CypA: Use Fc1 as the reference cell; immobilize CypA at 4 μg/ml using 5 μl/min flowrate on Fc2 (60s), Fc3 (80s) and Fc4 (80s), respectively. • 3. Binding of analytes: Inject WDB compound dilutions sequentially at 50 μl/min for association of 60 seconds. And then let it dissociates in buffer at 50 μl/min for 60 seconds. • 4. Regeneration: 2 injections of regeneration buffer at 30 μl/min for 60 seconds to regenerate the chip surface. • 5. Solvent correction: Run solvent correction at beginning and the end of the run. If run more than 6 compounds, add additional solvent correction every 6 compounds. • 6. Data fitting with built-in Biacore Evaluation Software: Steady-state fitting.

[1] = target: T1, BRAF-GTP-KRAS-G12C complex (Homo sapiens, UniProt P01116+P62937, G12C); experiment: KRAS-BRAF complex disruption through competition with CYPA-compound by TR-FRET; settings: biochemical BRAF-KRAS G12C-GTP disruption assay EC50, with CYPA
T1 construct: 50 nM of His6-KRas G12C-GTP (1-169); 500 nM of tagless CypA (1-165)
Method: In this example, TR-FRET was used to measure the compound-facilitated disruption of a KRAS-BRAF complex. A mixture of tagless Cyclophilin A, His6-KRAS G12C-GMP-PNP, and GST-BRAF RAS binding domain was added to a 384-well assay plate containing compounds of the invention and incubated for 3 hours. A mixture of Anti-His Eu-W1024 and anti-GST allophycocyanin was then added and the reaction was incubated for an additional 1.5 hours. TR-FRET signal was read on an EnVision microplate reader (Perkin Elmer, Ex 320 nm, Em 665/615 nm). Compounds that facilitate disruption of a KRAS_BRAF complex were identified as those eliciting a decrease in the TR-FRET ratio relative to DMSO control wells. To determine the presenter-dependence of the compound-mediated KRAS-BRAF complex disruption, Cyclophilin A was left out of the initial incubation (see Table 5). To determine G12C specificity of the compound-mediated KRAS-BRAF complex disruption, wild-type KRAS was used instead of G12C KRAS (see Table 5).
Reagents and Instrument • Tagless CYPA; 519 μM in PBS buffer, pH 7.4 • GST BRAF; 110 μM in PBS buffer, pH 7.4 • His6-KRASG12C-GMP-PNP; 50 μM in PBS buffer, pH 7.4 • His6-KRASWT-GMP-PNP; 40 μM in PBS buffer, pH 7.4 • Anti-His Eu-W1024 (LANCE® Eu-W1024; Perkin Elmer) • Anti-GST allophycocyanin (Anti-GST IgG conjugated to SureLight®-Allophycocyanin; Perkin Elmer; Product Number AD0059G) • Test compounds, 10 mM in 100% DMSO • EnVision (Perkin Elmer) • Combi MultiDrop liquid dispenser with 8-channel small volume cassette • 384-well ProxiPlate (black)
Experimental Protocol • 1. Use Mosquito to dispense 100 nL/well of compounds (varying concentration in […]) into 384-well black ProxiPlate to make assay-ready-plate (ARP). • 2. Make assay buffer containing 25 mM Hepes pH 7.3, 100 mM NaCl, 5 mM MgCl2, 0.05% BSA, and 0.002% Tween-20. • 3. Make PRE-MIX A: delivers final concentrations of 50 nM of His6-KRas G12C-GTP (1-169) and 500 nM of tagless CypA (1-165) in assay buffer. • a. For presenter dependence experiments, omit addition of tagless CypA • b. For G12C/wt specificity experiments, substitute His6-KRas WT-GTP (1-169) for His6-KRas G12C-GTP (1-169) • 4. Use MultiDrop Combi to dispense PRE-MIX A into ARP, 7 μl/well. Incubate 3 hr at room temperature. • 5. Make PRE-MIX B: delivers final concentrations of 10 nM of anti-His Eu-W1024 and 50 nM of anti-GST APC. • 6. Use MultiDrop Combi to dispense PRE-MIX B into ARP, 3 μl/well. Shake briefly on Combi and incubate 1.5 hr at room temperature. • 7. Read on EnVision (Ex: 320 nm; Em1: 615 nm; Em2: 665 nm). • 8. Data is processed using Dotmatics. Curves are fit using a 4-parameter non-linear fit to determine the EC50 value for formation of the ternary complex.

pERK in H358 cells = experiment: pERK inhibition in H358 cells; type: cell-based, human; settings: 4 hours treatment, read-out: Cellular pERK inhibition
Method: H358 cells (5500 cells) derived from a human lung cancer were plated in a 96 well plate in media (100 uL, RPMI with 10% FBS). After 24 hours, cells were treated for 4 hours with compound or DMSO. Cells were washed twice with room temperature TBS (200 uL) and fixed for 20 minutes with 4% paraformaldehyde diluted with TBS (150 uL). Cells were washed four times for five minutes with 0.1% TritonX/TBS (150 uL) to permeabilize the membrane. Cells were incubated with TBS blocking buffer (100 uL) at room temperature for 60 minutes. Primary antibody (Phospho-p44/42 MAPK (Erk1/2) (Thr202/Tyr204) (D13.14.4E) XP® Rabbit mAb #4370, Cell Signaling Technology; 1:200) was added, and the cells were incubated overnight at 4 C. The cells were washed four times for five minutes with 0.1% Tween 20/TBS (150 uL). Secondary antibody (IRDye® 800CW Goat-Anti-Rabbit IgG, Li-Cor Biosciences; 1:1000) and DRAQ5™ (Invitrogen; 1:2000) was added, and the cells were incubated for 1 hour at room temperature. The cells were washed four times for five minutes with 0.1% Tween 20/TBS (150 uL) and scanned using the LICOR (700 and 800 nm).

| Structure (SMILES) | Kd (cyclophilin A (CYPA)) [µM] | EC50 [1] [µM] | IC50 (pERK in H358 cells) [µM] |
| --- | --- | --- | --- |
| CC(C)C(C(=O)NC1Cc2cc(O)cc(c2)-c2ccc3c(C(C)(C)C#N)cn(c3c2)CC(CF)COC(=O)C2CCCN(N2)C1=O)N(C)C(=O)C1CN(C(=O)CCl)C1 (mixture of isomers) [Compound 34] | 5 to 15 | ≤ 0.5 | 1 to 10 |
| CC1COC(=O)C2CCCN(N2)C(=O)C(NC(=O)C(C(C)C)N(C)C(=O)C2CN(C(=O)CCl)C2)Cc2cc(O)cc(c2)-c2ccc3c4c(n(c3c2)C1)COCC4(C)C#N (mixture of isomers) [Compound 62] | 5 to 15 | ≤ 0.5 | ≤ 1 |
| CC1COC(=O)C2CCCN(N2)C(=O)C(NC(=O)C(C(C)C)N(C)C(=O)C2CN(C(=O)CCl)C2)Cc2cc(O)cc(c2)-c2ccc3c4c(n(c3c2)C1)CCC4C#N (mixture of isomers) [Compound 74] | ≤ 5 | ≤ 0.5 | 1 to 10 |
| CC1COC(=O)[C@@H]2CCCN(N2)C(=O)[C@@H](NC(=O)[C@H](C(C)C)N(C)C(=O)C2CN(C(=O)CCl)C2)Cc2cc(O)cc(c2)-c2ccc3c(c2)c(cn3CC2COC2)C1 (single isomer, unassigned) [Compound 227] | 5 to 15 |  | > 10 |
| CC1COC(=O)[C@@H]2CCCN(N2)C(=O)[C@@H](NC(=O)[C@H](C(C)C)N(C)C(=O)C2CN(C(=O)CCl)C2)Cc2cc(O)cc(c2)-c2ccc3c(c2)c(cn3CC2COC2)C1 (single isomer, unassigned) [Compound 228] | ≤ 5 |  | 1 to 10 |
| CC1COC(=O)C2CCCN(N2)C(=O)C(NC(=O)C(C(C)C)N(C)C(=O)C2CN(C(=O)CCl)C2)Cc2cc(O)cc(c2)-c2ccc3c(-c4ccccc4C#N)cn(c3c2)C1 [Compound 5, 1-(2-chloroacetyl)-N-((2S)-1-(((6^3S,4S,10S)-1^3-(2-cyanophenyl)-2^5-hydroxy-10-methyl-5,7-dioxo-6^1,6^2,6^3,6^4,6^5,6^6-hexahydro-1^1H-8-oxa-1(6,1)-indola-6(1,3)-pyridazina-2(1,3)-benzenacycloundecaphane-4-yl)amino)-3-methyl-1-oxobutan-2-yl)-N-methylazetidine-3-carboxamide] | ≤ 5 |  | ≤ 1 |
| CC(C)[C@@H](C(=O)N[C@H]1Cc2cc(O)cc(c2)-c2ccc3c(-c4cccnc4)cn(c3c2)C[C@H](C)COC(=O)[C@@H]2CCCN(N2)C1=O)N(C)C(=O)C1CN(C(=O)CCl)C1 [Compound 51] |  | ≤ 0.5 | 1 to 10 |
| CC(C)[C@@H](C(=O)N[C@H]1Cc2cc(O)cc(c2)-c2ccc3c(Cc4cccnc4)cn(c3c2)C[C@H](C)COC(=O)[C@@H]2CCCN(N2)C1=O)N(C)C(=O)C1CN(C(=O)CCl)C1 [Compound 70] |  | ≤ 0.5 | > 10 |
| C=CC(=O)N1CCN([C@H](C(=O)N[C@H]2Cc3cc(O)cc(c3)-c3ccc4c(C5CCOCC5)cn(c4c3)CCCOC(=O)[C@@H]3CCCN(N3)C2=O)C(C)C)C1=O [Compound 229, (2S)-2-(3-acryloyl-2-oxoimidazolidin-1-yl)-N-((6^3S,4S)-2^5-hydroxy-5,7-dioxo-1^3-(tetrahydro-2H-pyran-4-yl)-6^1,6^2,6^3,6^4,6^5,6^6-hexahydro-1^1H-8-oxa-1(6,1)-indola-6(1,3)-pyridazina-2(1,3)-benzenacycloundecaphane-4-yl)-3-methylbutanamide] | ≤ 5 |  | > 10 |
| CC(C)[C@@H](C(=O)N[C@H]1Cc2cc(N)cc(c2)-c2ccc3c(C#N)cn(c3c2)CC(C)(C)COC(=O)[C@@H]2CCCN(N2)C1=O)N(C)C(=O)C1CN(C(=O)CCl)C1 [Compound 230, N-((2S)-1-(((6^3S,4S)-2^5-amino-1^3-cyano-10,10-dimethyl-5,7-dioxo-6^1,6^2,6^3,6^4,6^5,6^6-hexahydro-1^1H-8-oxa-1(6,1)-indola-6(1,3)-pyridazina-2(1,3)-benzenacycloundecaphane-4-yl)amino)-3-methyl-1-oxobutan-2-yl)-1-(2-chloroacetyl)-N-methylazetidine-3-carboxamide] |  | 0.5 to 5 | > 10 |
| C=CC(=O)N1CC(C(=O)N(C)[C@H](C(=O)N[C@H]2Cc3cc(O)cc(c3)-c3ccc4c(C5CCN(C)CC5)nn(c4c3)CC(C)(C)COC(=O)[C@@H]3CCCN(N3)C2=O)C(C)C)C1 [Compound 232, 1-acryloyl-N-((2S)-1-(((6^3S,4S)-2^5-hydroxy-10,10-dimethyl-1^3-(1-methylpiperidin-4-yl)-5,7-dioxo-6^1,6^2,6^3,6^4,6^5,6^6-hexahydro-1^1H-8-oxa-1(6,1)-indazola-6(1,3)-pyridazina-2(1,3)-benzenacycloundecaphane-4-yl)amino)-3-methyl-1-oxobutan-2-yl)-N-methylazetidine-3-carboxamide] |  | 0.5 to 5 | > 10 |
| C#Cc1nn2c3cc(ccc13)-c1cc(O)cc(c1)C[C@H](NC(=O)[C@H](C(C)C)N(C)C(=O)C1CN(C(=O)CCl)C1)C(=O)N1CCC[C@H](N1)C(=O)OCC(C)(C)C2 [Compound 233, 1-(2-chloroacetyl)-N-((2S)-1-(((6^3S,4S)-1^3-ethynyl-2^5-hydroxy-10,10-dimethyl-5,7-dioxo-6^1,6^2,6^3,6^4,6^5,6^6-hexahydro-1^1H-8-oxa-1(6,1)-indazola-6(1,3)-pyridazina-2(1,3)-benzenacycloundecaphane-4-yl)amino)-3-methyl-1-oxobutan-2-yl)-N-methylazetidine-3-carboxamide] |  | ≤ 0.5 | > 10 |
| C=CC(=O)N1CCC(C(=O)N(C)C(C(=O)NC2Cc3cc(O)cc(c3)-c3ccc4c(c3)c(cn4C(C)(C)C#N)CC(C)(C)COC(=O)C3CCCN(N3)C2=O)C2CCCCC2)C1 (centres unmarked) [Compound 396] |  | > 5 | 1 to 10 |
